Results as given in patent US9169269B2, “Water-soluble solid pharmaceutical inclusion complexes and their aqueous solutions for oral, ophthalmic, topical or parenteral use containing a macrolide and certain cyclodextrins” (EUTICALS SPA, priority 2010, dated 2015).

What was measured:
Assay type in all cases: physicochemical
[1] = Stability of Everolimus gamma CD complex versus amorphous Everolimus (powder) at 60° C., total impurities (HPLC); settings: powder 60° C.
Method: For the HPLC determination of the chromatographic purity of Temsirolimus and Everolimus: Column: Zorbax SB-C18; 3.5 μm (75×4.6 mm), Precolumn: Symmetry Shield RP18; 5 μm (20×3.9 mm).
Mobile Phase composition: • Component A: 900 ml of water, 100 ml of acetonitrile and 50 μl of 50% aqueous acetic acid • Component B: 1000 ml of acetonitrile and 50 μl of 50% aqueous acetic acid Gradient elution: […]
Flow rate: 1 ml/min. Column temperature: 60° C. Volume of injection: 20 μl.
Sample preparation: solution of 0.5 mg/ml in acetonitrile. Detector UV: 278 nm
The stability data on Everolimus complex with CD prepared according each of the examples 2 and 3 are reported on FIG. 3 and on Table 7.
In particular, in FIG. 3, are reported the sum of the related by products originated by degradation (HPLC data in area %) during a stability tests performed on the powder at 60° C. for 96 hours.

[2] = Preliminary stability tests on micronized Rapamycin and in solution (ethanol); settings: finely micronized (10^−5 microns) and in solution (ethanol), within few hours
Text: In order to proceed with formulative studies we have performed preliminary stability tests on micronized Rapamycin (10^−5 microns) and in solution (ethanol).

[3] = Stability of amorphous and crystalline Rapamycin at 60° C. (HPLC chromatographic purity); settings: for decrease of chromatographic purity: after 408 hours (17 days)
Method: For the HPLC determination of chromatographic purity of Rapamycin: Column: Thermo BDS Hypersil C18; 3 μm (100×4.6 mm). Mobile Phase composition: isocratic elution • Component A: 50% acetonitrile • Component B: 50% ammonium acetate buffer pH 5.8 (concentration 0.8 g/l of ammonium acetate; the final pH value was brought to a final value of 5.8 with glacial acetic acid)
Flow rate: 1.0 ml/min. Column temperature: 55° C. Volume of injection: 100 μl.
Sample solution: weight 25 mg of Rapamycin and dissolve in 100 ml of acetonitrile/water 1/1 v/v (final concentration 0.25 mg/ml). UV detector: 278 nm

| Compound | HPLC area % of total impurities ([1]; 0 hours) [area %] | HPLC area % of total impurities ([1]; 24 hours) [area %] | HPLC area % of total impurities ([1]; 48 hours) [area %] | HPLC area % of total impurities ([1]; 72 hours) [area %] | HPLC area % of total impurities ([1]; 96 hours) [area %] | HPLC area % of total impurities ([1]; 168 hours) [area %] | decrease in the assay value [2] [%] | chromatographic purity (HPLC data) ([3]; 0 hours) [area %] | chromatographic purity (HPLC data) ([3]; 20 hours) [area %] | chromatographic purity (HPLC data) ([3]; 96 hours) [area %] | chromatographic purity (HPLC data) ([3]; 168 hours) [area %] | chromatographic purity (HPLC data) ([3]; 408 hours) [area %] | decrease of chromatographic purity [3] |
| --- | --- | --- | --- | --- | --- | --- | --- | --- | --- | --- | --- | --- | --- |
| CO[C@H]1C[C@@H]2CC[C@@H](C)[C@@](O)(O2)C(=O)C(=O)N2CCCC[C@H]2C(=O)O[C@H]([C@H](C)C[C@@H]2CC[C@@H](OCCO)[C@H](OC)C2)CC(=O)[C@H](C)/C=C(\C)[C@@H](O)[C@@H](OC)C(=O)[C@H](C)C[C@H](C)/C=C/C=C/C=C/1C [Amorphous Everolimus, Everolimus] | 1.5 | 2.44 | 4.52 | 7.1 | 9.2 | 14.1 |  |  |  |  |  |  |  |
| CO[C@H]1C[C@@H]2CC[C@@H](C)[C@@](O)(O2)C(=O)C(=O)N2CCCC[C@H]2C(=O)O[C@H]([C@H](C)C[C@@H]2CC[C@@H](O)[C@H](OC)C2)CC(=O)[C@H](C)/C=C(\C)[C@@H](O)[C@@H](OC)C(=O)[C@H](C)C[C@H](C)/C=C/C=C/C=C/1C [Rapamycin] |  |  |  |  |  |  | −10 |  |  |  |  |  |  |
| CO[C@H]1C[C@@H]2CC[C@@H](C)[C@@](O)(O2)C(=O)C(=O)N2CCCC[C@H]2C(=O)O[C@H]([C@H](C)C[C@@H]2CC[C@@H](O)[C@H](OC)C2)CC(=O)[C@H](C)/C=C(\C)[C@@H](O)[C@@H](OC)C(=O)[C@H](C)C[C@H](C)/C=C/C=C/C=C/1C [Amorphous Rapamycin, Rapamycin] |  |  |  |  |  |  |  | 98.90 | 93.00 | 90.00 | 88.00 | 84.90 | −14% |
| CO[C@H]1C[C@@H]2CC[C@@H](C)[C@@](O)(O2)C(=O)C(=O)N2CCCC[C@H]2C(=O)O[C@H]([C@H](C)C[C@@H]2CC[C@@H](O)[C@H](OC)C2)CC(=O)[C@H](C)/C=C(\C)[C@@H](O)[C@@H](OC)C(=O)[C@H](C)C[C@H](C)/C=C/C=C/C=C/1C [Crystalline Rapamycin, Rapamycin] |  |  |  |  |  |  |  | 99.10 | 99.10 | 99.10 | 99.00 | 99.00 | the same chromatographic purity |
